Assay results: US10800792B2, “Inhibitors of Bruton's tyrosine kinase and method of their use” (JANSSEN PHARMACEUTICA NV, priority 2015, dated 2020)

Target: unphosphorylated-BTK kinase domain (UP-BTK), GST-tagged human BTK (389-659aa) (Homo sapiens (Human), UniProt Q06187)
Assay: BTK kinase Lanthascreen binding assay
Details: unphosphorylated-BTK kinase domain, 50 nM Tracer 236, 60 minutes; pIC50 = negative log of the IC50 in molar
Method in brief: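 Measures how well compounds compete with a fluorescence-labelled tracer for binding to BTK in its unphosphorylated state. IC50 values were fitted and expressed as pIC50 (negative logarithm of the molar IC50).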

unphosphorylated-BTK kinase domain (UP-BTK), GST-tagged human BTK (389-659aa), sequence (Q06187 389-659): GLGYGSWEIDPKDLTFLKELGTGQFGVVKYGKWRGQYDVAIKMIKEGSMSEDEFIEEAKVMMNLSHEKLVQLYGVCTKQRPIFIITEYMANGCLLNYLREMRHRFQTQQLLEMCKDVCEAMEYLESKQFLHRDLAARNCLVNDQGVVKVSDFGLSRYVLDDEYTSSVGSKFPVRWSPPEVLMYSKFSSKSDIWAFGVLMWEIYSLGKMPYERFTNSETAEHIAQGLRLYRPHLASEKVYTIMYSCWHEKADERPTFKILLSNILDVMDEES

Structure (SMILES) | BTK_I_binding pIC50
Cc1cc(Oc2ccccc2)ccc1N1C(=O)Nc2c(C(=O)NC3COCCN(C#N)C3)sc3nccc1c23 (single isomer, unassigned) [Example 485, N-(4-Cyano-1,4-oxazepan-6-yl)-5-(*S)-(2-methyl-4-phenoxyphenyl)-4-oxo-4,5-dihydro-3H-1-thia-3,5,8-triazaacenaphthylene-2-carboxamide] | 7.9
Cc1cc(Oc2ccccc2)ccc1N1C(=O)Nc2c(C(=O)N[C@@H]3CCN(C(=O)/C(C#N)=C/C4CC4)C3)sc3nccc1c23 (single isomer, unassigned) [Example 491, (R,E)-N-(1-(2-Cyano-3-cyclopropylacryloyl)pyrrolidin-3-yl)-5-(*S)-(2-methyl-4-phenoxyphenyl)-4-oxo-4,5-dihydro-3H-1-thia-3,5,8-triazaacenaphthylene-2-carboxamide] | 7.6
CNC/C=C/C(=O)N1CC[C@@H](NC(=O)c2sc3nccc4c3c2NC(=O)N4c2ccc(Oc3ccccc3)cc2C)C1 (single isomer, unassigned) [Example 492, (R,E)-5-(*S)-(2-Methyl-4-phenoxyphenyl)-N-(1-(4-(methylamino)but-2-enoyl)pyrrolidin-3-yl)-4-oxo-4,5-dihydro-3H-1-thia-3,5,8-triazaacenaphthylene-2-carboxamide] | 8.0
C=CC(=O)N1CCC[C@@H](NC(=O)c2sc3nccc4c3c2NC(=O)N4c2ccc(OC3CCC3)cc2C)C1 (single isomer, unassigned) [Example 501, (R)—N-(1-Acryloylpiperidin-3-yl)-5-(*S)-(4-cyclobutoxy-2-methylphenyl)-4-oxo-4,5-dihydro-3H-1-thia-3,5,8-triazaacenaphthylene-2-carboxamide] | 7.9
Cc1cc(Oc2ccccc2)ccc1N1C(=O)Nc2c(C(=O)N[C@@H]3CCN(C(=O)/C=C/CN(C)C)C3)sc3nccc1c23 (single isomer, unassigned) [Example 502, (R,E)-N-(1-(4-(Dimethylamino)but-2-enoyl)pyrrolidin-3-yl)-5-(*S)-(2-methyl-4-phenoxyphenyl)-4-oxo-4,5-dihydro-3H-1-thia-3,5,8-triazaacenaphthylene-2-carboxamide] | 7.9
Cc1cc(Oc2ccccc2)ccc1N1C(=O)Nc2c(C(=O)N[C@@H]3CCCN(C(=O)/C(C#N)=C/C4(C)COC4)C3)sc3nccc1c23 (single isomer, unassigned) [Example 509, (R,EZ)—N-(1-(2-Cyano-3-(3-methyloxetan-3-yl)acryloyl)piperidin-3-yl)-5-(*S)-(2-methyl-4-phenoxyphenyl)-4-oxo-4,5-dihydro-3H-1-thia-3,5,8-triazaacenaphthylene-2-carboxamide] | 7.9
C=CS(=O)(=O)N1CCC[C@@H](NC(=O)c2sc3nccc4c3c2NC(=O)N4c2ccc(Oc3ccccc3)cc2C)C1 (single isomer, unassigned) [Example 530, (R)-5-(*S)-(2-Methyl-4-phenoxyphenyl)-4-oxo-N-(1-(vinylsulfonyl)piperidin-3-yl)-4,5-dihydro-3H-1-thia-3,5,8-triazaacenaphthylene-2-carboxamide] | 8.0

Now from value to compound:

BTK_I_binding pIC50 | Structure (SMILES)
7.4 | C/C=C\C(=O)N1CCC[C@@H](NC(=O)c2sc3nccc4c3c2NC(=O)N4c2ccc(Oc3ccccc3)cc2C)C1 (single isomer, unassigned) [Example 476, (R,*Z)—N-(1-(But-2-enoyl)piperidin-3-yl)-5-(*S)-(2-methyl-4-phenoxyphenyl)-4-oxo-4,5-dihydro-3H-1-thia-3,5,8-triazaacenaphthylene-2-carboxamide]
7.2 | Cc1cc(Oc2ccccc2)ccc1N1C(=O)Nc2c(C(=O)N[C@@H]3CCCN(C(=O)/C=C/CN(C)C)C3)sc3nccc1c23 (single isomer, unassigned) [Example 488, (R,E)-N-(1-(4-(Dimethylamino)but-2-enoyl)piperidin-3-yl)-5-(*S)-(2-methyl-4-phenoxyphenyl)-4-oxo-4,5-dihydro-3H-1-thia-3,5,8-triazaacenaphthylene-2-carboxamide]
6.9 | Cc1cc(Oc2ccccc2)ccc1N1C(=O)Nc2c(C(=O)N[C@@H]3CCN(C)C3)sc3nccc1c23 (single isomer, unassigned) [Example 493, (R)-5-(*S)-(2-Methyl-4-phenoxyphenyl)-N-(1-methylpyrrolidin-3-yl)-4-oxo-4,5-dihydro-3H-1-thia-3,5,8-triazaacenaphthylene-2-carboxamide]
8.0 | Cc1cc(Oc2ccccc2)ccc1N1C(=O)Nc2c(C(=O)N[C@@H]3CCN(C(=O)CCS(C)(=O)=O)C3)sc3nccc1c23 (single isomer, unassigned) [Example 494, (R)-5-(*S)-(2-Methyl-4-phenoxyphenyl)-N-(1-(3-(methylsulfonyl)propanoyl)pyrrolidin-3-yl)-4-oxo-4,5-dihydro-3H-1-thia-3,5,8-triazaacenaphthylene-2-carboxamide]
7.5 | COCC(=O)N1CCC[C@@H](NC(=O)c2sc3nccc4c3c2NC(=O)N4c2ccc(Oc3ccccc3)cc2C)C1 (single isomer, unassigned) [Example 495, (R)—N-(1-(2-Methoxyacetyl)piperidin-3-yl)-5-(*S)-(2-methyl-4-phenoxyphenyl)-4-oxo-4,5-dihydro-3H-1-thia-3,5,8-triazaacenaphthylene-2-carboxamide]
7.8 | Cc1cc(Oc2ccccc2)ccc1N1C(=O)Nc2c(C(=O)N[C@@H]3CCCN(C(=O)/C=C/CO)C3)sc3nccc1c23 (single isomer, unassigned) [Example 503, (R,E)-N-(1-(4-Hydroxybut-2-enoyl)piperidin-3-yl)-5-(*S)-(2-methyl-4-phenoxyphenyl)-4-oxo-4,5-dihydro-3H-1-thia-3,5,8-triazaacenaphthylene-2-carboxamide]
8.1 | Cc1cc(Oc2ccccc2)ccc1N1C(=O)Nc2c(C(=O)N[C@@H]3CCN(C(=O)/C=C/CN)C3)sc3nccc1c23 (single isomer, unassigned) [Example 520, (R,E)-N-(1-(4-Aminobut-2-enoyl)pyrrolidin-3-yl)-5-(*S)-(2-methyl-4-phenoxyphenyl)-4-oxo-4,5-dihydro-3H-1-thia-3,5,8-triazaacenaphthylene-2-carboxamide]
8.0 | Cc1cc(Oc2ccccc2)ccc1N1C(=O)Nc2c(C(=O)N[C@@H]3CCN(C(=O)/C=C/CO)C3)sc3nccc1c23 (single isomer, unassigned) [Example 522, (R,E)-N-(1-(4-Hydroxybut-2-enoyl)pyrrolidin-3-yl)-5-(*S)-(2-methyl-4-phenoxyphenyl)-4-oxo-4,5-dihydro-3H-1-thia-3,5,8-triazaacenaphthylene-2-carboxamide]
7.8 | CN[C@@H](C)C(=O)N1CCC[C@@H](NC(=O)c2sc3nccc4c3c2NC(=O)N4c2ccc(Oc3ccccc3)cc2C)C1 (single isomer, unassigned) [Example 524, 5-(*S)-(2-Methyl-4-phenoxyphenyl)-N—((R)-1-((S)-2-(methylamino)propanol)piperidin-3-yl)-4-oxo-4,5-dihydro-3H-1-thia-3,5,8-triazaacenaphthylene-2-carboxamide]
